Data from ChEMBL document CHEMBL1944624, “Synthesis and antimalarial and antituberculosis activities of a series of natural and unnatural 4-methoxy-6-styryl-pyran-2-ones, dihydro analogues and photo-dimers” (Bioorg Med Chem, 2012).
Converted amounts (≈) assume the structure as drawn.

Tests used:
[1] = system: Leishmania donovani; assay: Antiprotozoal activity against Leishmania donovani MHOM/ET/67/L82 axenic amastigotes after 72 hrs by alamar blue assay; assay type: functional, organism-based; conditions: MHOM/ET/67/L82, 72 h
[2] = system: L6; assay: Cytotoxicity against rat L6 myoblasts after 72 hrs by alamar blue assay; assay type: cell-based; conditions: L6, 72 h
[3] = Selectivity index, ratio of IC50 for erythrocytic stages chloroquine and pyrimethamine-resistant Plasmodium falciparum K1 to IC50 for rat L6 myoblasts; parameters: reference not given here
[4] = system: Trypanosoma cruzi; assay: Antiprotozoal activity against Trypanosoma cruzi Tulahuen C2C4 amastigotes infected in rat L6 myoblasts after 96 hrs by CPRG/Nonidet-based spectrophotometry; assay type: functional, organism-based; conditions: Tulahuen C2C4, L6, 96 h
[5] = system: Plasmodium falciparum; assay: microbe, parasite or virus in culture; assay type: functional, organism-based; conditions: K1
Description: Antiprotozoal activity against erythrocytic stages chloroquine- and pyrimethamine-resistant Plasmodium falciparum K1 assessed as inhibition of [3H]hypoxanthine incorporation pre-incubated for 48 hrs prior [3H]hypoxanthine addition measured after 24 hrs by liquid scintillation counting

[6] = system: Trypanosoma brucei rhodesiense; assay: Antiprotozoal activity against Trypanosoma brucei rhodesiense STIB900 trypomastigotes after 72 hrs by alamar blue assay; assay type: functional, organism-based; conditions: STIB900, 72 h
[7] = system: Plasmodium falciparum; assay: Antiprotozoal activity against chloroquine resistant Plasmodium falciparum K1; assay type: functional, organism-based
[8] = system: Leishmania donovani; assay: Antiprotozoal activity against Leishmania donovani; assay type: functional, organism-based
[9] = system: Mycobacterium tuberculosis; assay: Antituberculosis activity against Mycobacterium tuberculosis; assay type: functional
[10] = system: Trypanosoma brucei rhodesiense; assay: Antiprotozoal activity against Trypanosoma brucei rhodesiense; assay type: functional, organism-based
[11] = system: Plasmodium falciparum; assay: Antiprotozoal activity against Plasmodium falciparum; assay type: functional, organism-based

SMILES | IC50 [1] [µM] | IC50 [2] [µM] | Ratio IC50 [3] | IC50 [4] [µM] | IC50 [5] [µM] | IC50 [6] [µM] | IC50 [7] [µM] | IC50 [8] [µM] | MIC [9] [µM] | IC50 [10] [µM] | IC50 [11] [µM]
COc1cc(/C=C/c2ccc3c(c2)OCO3)oc(=O)c1 | 230 | 16 | 3 | 180 | 5.6 | 47 |  |  |  |  | 
COC1=CC(=O)O[C@]2(/C=C/c3cccc(Oc4ccc(C(C)(C)C)cc4)c3)[C@H]1[C@H](c1cccc(Oc3ccc(C(C)(C)C)cc3)c1)[C@H]2c1cc(OC)cc(=O)o1 (racemic) | 66 | > 120 | >27 | > 120 | 4.4 | > 120 |  |  |  |  | 
CCCCCCCC1CC(O)=C(CCCCCC)C(=O)O1 (centres undefined) [PSEUDOPYRONINE B] |  |  |  |  |  |  | 48 | 4.8 | 2.7 (≈ 0.8 µg/mL) | 42 | 
COc1cc([C@@H]2c3cc4c(cc3[C@H](O)[C@H]3COC(=O)[C@H]23)OCO4)cc(OC)c1OC [PODOFILOX] |  | 0.01 |  |  |  |  |  |  |  |  | 
COc1cc(CCc2ccccc2)oc(=O)c1 [DIHYDRO-5,6-DEHYDROKAWAIN] | 190 | 290 |  | 240 | > 22 |  |  |  |  |  | 
COc1cc(/C=C/c2cccc([N+](=O)[O-])c2)oc(=O)c1 | 270 | 180 | 15 | > 330 | 12 | 290 |  |  |  |  | 
COc1cc(/C=C/c2ccc3ccccc3c2)oc(=O)c1 | > 320 | 28 | 22 | > 320 | 1.3 | 2.7 |  |  |  |  | 
COc1cc(/C=C/C=C/c2ccccc2)oc(=O)c1 | 220 | 190 | 29 | > 350 | 6.7 | 150 |  |  |  |  | 
O=C(Cn1ccnc1[N+](=O)[O-])NCc1ccccc1 [BENZNIDAZOLE] |  |  |  | 1.4 |  |  |  |  |  |  | 
COc1cc(/C=C/c2ccc(OC)c(OC)c2)oc(=O)c1 | 270 | 160 | 54 | 170 | 3 | 31 |  |  |  |  | 
CCCCCCc1c(OC)cc(CCCCC)oc1=O |  |  |  |  |  |  |  |  | 45 (≈ 12.6 µg/mL) | 14 | 11
COc1cc(CCc2ccc3ccccc3c2)oc(=O)c1 | 42 | 91 | 6 | 65 | 16 | 72 |  |  |  |  | 
COc1cc(CCc2ccc(CCc3cc(OC)cc(=O)o3)cc2)oc(=O)c1 | > 240 | 50 | 14 | > 240 | 3.6 | 200 |  |  |  |  | 
COc1cc(CCc2ccc3c(c2)OCO3)oc(=O)c1 | > 330 | 150 |  | > 330 | > 18 | > 330 |  |  |  |  | 
COc1cc(=O)oc([C@H]2[C@H](c3ccc(OC)c(OC)c3)[C@H](c3cc(OC)cc(=O)o3)[C@H]2c2ccc(OC)c(OC)c2)c1 | 75 | 22 | 7 | 38 | 3.1 | 6.2 |  |  |  |  | 
COc1cc(/C=C/c2ccco2)oc(=O)c1 | 240 | 140 | 8 | > 410 | 17 | 76 |  |  |  |  | 
COc1cc(/C=C/c2cccc(Oc3ccccc3)c2)oc(=O)c1 | 30 | 13 | 3 | 43 | 4.9 | 8.8 |  |  |  |  | 

SMILES | IC50 [1] [µM] | IC50 [2] [µM] | Ratio IC50 [3] | IC50 [4] [µM] | IC50 [5] [µM] | IC50 [6] [µM] | IC50 [7] [µM] | IC50 [8] [µM] | MIC [9] [µM] | IC50 [10] [µM] | IC50 [11] [µM]
COc1cc(=O)oc([C@H]2[C@H](c3ccc4ccccc4c3)[C@H](c3cc(OC)cc(=O)o3)[C@H]2c2ccc3ccccc3c2)c1 | 10 | 95 | 42 | 90 | 2.3 | 4.9 |  |  |  |  | 
COc1cc(/C=C/C=C/c2ccc(N(C)C)cc2)oc(=O)c1 | > 300 | 26 | 4 | > 300 | 7.2 | 290 |  |  |  |  | 
COc1cc(/C=C/c2ccccc2)oc(=O)c1 [DESMETHOXYYANGONIN] | 190 | 160 | 12 | 64 | 13 | 120 |  |  |  |  | 
COc1cc(/C=C/c2ccc(C(C)(C)C)cc2)oc(=O)c1 | 20 | 24 | 4 | 26 | 5.3 | 44 |  |  |  |  | 
COc1cc(/C=C/c2cccc3ccccc23)oc(=O)c1 | 47 | 110 | 24 | 34 | 4.6 | 18 |  |  |  |  | 
COc1cc([C@@H]2[C@@H](c3ccccc3)[C@@H](c3ccccc3)[C@@H]2c2cc(OC)cc(=O)o2)oc(=O)c1 | 17 | 51 | 13 | 32 | 3.8 | 15 |  |  |  |  | 
COc1cc(CCc2ccc(C(C)(C)C)cc2)oc(=O)c1 | 24 | 95 | 9 | 55 | 11 | 78 |  |  |  |  | 
COc1cc(/C=C/c2ccc(/C=C/c3cc(OC)cc(=O)o3)cc2)oc(=O)c1 | > 240 | > 240 | >28 | > 240 | 8.6 | 119 |  |  |  |  | 
COC1=CC(=O)O[C@]2(/C=C/c3ccc(OC)c(OC)c3)[C@H]1[C@H](c1ccc(OC)c(OC)c1)[C@H]2c1cc(OC)cc(=O)o1 (relative stereo) | 79 | 120 | 80 | 130 | 1.5 | 61 |  |  |  |  | 
COc1cc(/C=C/c2ccc([N+](=O)[O-])cc2)oc(=O)c1 | 49 | 190 | 32 | 240 | 6 | 38 |  |  |  |  | 
COc1cc(/C=C/c2cccc(Oc3ccc(C(C)(C)C)cc3)c2)oc(=O)c1 | 25 | 64 | 10 | 40 | 6.3 | 34 |  |  |  |  | 
CCCCCCCCCCCCCCCCOP(=O)([O-])OCC[N+](C)(C)C [MILTEFOSINE] | 0.5 |  |  |  |  |  |  |  |  |  | 
COc1cc(CCc2ccc(OC)c(OC)c2)oc(=O)c1 | 270 | > 310 |  | > 310 | > 17 | 200 |  |  |  |  | 
COC1=CC(=O)O[C@]2(/C=C/c3ccccc3)[C@H]1[C@H](c1ccccc1)[C@H]2c1cc(OC)cc(=O)o1 (relative stereo) | 27 | > 200 | >28 | 28 | 7.1 | 13 |  |  |  |  | 
COc1cc(CCc2cccc(Oc3ccc(C(C)(C)C)cc3)c2)oc(=O)c1 | 15 | 50 | 7 | 36 | 7.2 | 65 |  |  |  |  | 
COC1=CC(=O)O[C@]2(/C=C/c3ccc(C(C)(C)C)cc3)[C@H]1[C@H](c1ccc(C(C)(C)C)cc1)[C@H]2c1cc(OC)cc(=O)o1 (racemic) | 4.5 | 130 | 76 | 71 | 1.7 | 21 |  |  |  |  | 
COc1cc(CCc2cccc3ccccc23)oc(=O)c1 | 55 | 110 |  | 76 | > 18 | 85 |  |  |  |  | 
